Data from patent publication US20200347153A1, “METHODS FOR FORMING INCLUSION COMPLEXES WITH HYDROPHILIC BETA-CYCLODEXTRIN DERIVATIVES AND COMPOSITIONS THEREOF” (priority 2019, published 2020).

What was measured:
[1] = Stability studies (shelf life, visible changes); type: physicochemical; settings: visible changes; for Stability of Actives at 40° C.: 40° C. accelerated stability
Procedure: The effects of HPBCD on the shelf life stability of each active agent is studied at pre-determined temperatures for 11 weeks. Real time stability is observed at −17° C., 5° C. and 25° C., and accelerated stability is observed at 40° C. For accelerated stability, one day at 40° C. is equivalent to one week, thus the data represents 77 weeks. […] The vials are then placed in a temperature-controlled oven or refrigerator/freezer. The compounds are checked daily and any visible changes are noted.

[2] = Differential scanning calorimetry (decomposition); type: physicochemical; settings: DSC curve
Procedure: Calorimetric studies are conducted using a Modulated Differential Scanning calorimetry instrument (MDSC). Accurately weighed samples are sealed in Tzero aluminum pans. Empty sealed Tzero aluminum pans are used as a reference. […] Thermal analysis of pure active, excipients, formulations and physical mixtures are performed. Data analysis is performed using Universal Analysis software to measure melting point enthalpy of melting.
Differential scanning calorimetry (DSC) is a thermoanalytical technique useful in detecting phase transitions in solid samples by measuring the amount of heat absorbed or released during such transitions.
DSC analysis was performed using a TA Trios DSC instrument. Samples tested were HPBCD, the Active, and the active-HPBCD inclusion complexes. Each weighed sample for analysis ranged from 2.00 mg to 4.00 mg.

Phase solubility studies = settings: active with HPBCD; calculated using Eq. (1)
[3] = Solubility in water (statements); type: physicochemical
[4] = cited from earlier work
[5] = cited from earlier work; remark: listed apart in the source

| Stability of Actives at 5° C. ([1]; Week 1) | Stability of Actives at 5° C. ([1]; Week 2) | Stability of Actives at 5° C. ([1]; Week 3) | Stability of Actives at 5° C. ([1]; Week 4) | Stability of Actives at 5° C. ([1]; Week 5) | Stability of Actives at 5° C. ([1]; Week 6) | Stability of Actives at 5° C. ([1]; Week 7) | Stability of Actives at 5° C. ([1]; Week 8) | Stability of Actives at 25° C. ([1]; Week 1) | Stability of Actives at 25° C. ([1]; Week 2) | Stability of Actives at 25° C. ([1]; Week 3) | Stability of Actives at 25° C. ([1]; Week 4) | Stability of Actives at 25° C. ([1]; Week 5) | Stability of Actives at 25° C. ([1]; Week 6) | Stability of Actives at 25° C. ([1]; Week 7) | Stability of Actives at 25° C. ([1]; Week 8) | Stability of Actives at 25° C. ([1]; Week 9) | Stability of Actives at 25° C. ([1]; Week 10) | Stability of Actives at 25° C. ([1]; Week 11) | Stability of Actives at 40° C. ([1]; Week 1) | Compound | also measured |
| --- | --- | --- | --- | --- | --- | --- | --- | --- | --- | --- | --- | --- | --- | --- | --- | --- | --- | --- | --- | --- | --- |
| 0 | 0 | 0 | 0 | 0 | 0 | 0 | 0 | 0 | 0 | 0 | 0 | 0 | 0 | 0 | 0 | 0 | 0 | 0 | 0 | CCOC(=O)c1ccc(N)cc1 [Benzocaine] | Stability of Actives at 5° C. ([1]; Week 9): 0; Stability of Actives at 5° C. ([1]; Week 10): 0; Stability of Actives at 5° C. ([1]; Week 11): 0; Stability of Actives at 40° C. ([1]; Week 2): 0; Stability of Actives at 40° C. ([1]; Week 3): 0; Stability of Actives at 40° C. ([1]; Week 4): 0; Stability of Actives at 40° C. ([1]; Week 5): 0; Stability of Actives at 40° C. ([1]; Week 6): 0; Stability of Actives at 40° C. ([1]; Week 7): 0; Stability of Actives at 40° C. ([1]; Week 8): 0; Stability of Actives at 40° C. ([1]; Week 9): 0; Stability of Actives at 40° C. ([1]; Week 10): 0; Stability of Actives at 40° C. ([1]; Week 11): 0; decomposition (DSC) [2]: 230 °C; association constant (Kc) for complex formation (Phase solubility studies): 1.031 M⁻¹ |
| 0 |  |  |  |  |  |  |  | 0 | 0 | 0 | 0 | 0 | 0 | 0 | 0 | 0 | 0 | 0 | 0 | NC(=O)c1cccnc1 [Niacinamide] | solubility in water [3]: strong water solubility; association constant (Kc) for complex formation (Phase solubility studies): 0.79856 M⁻¹ |
| 0 | 0 | 0 | 0 | 0 | 0 | 0 | 0 | 0 | 0 | 0 | 0 | 0 | 0 | 0 | 0 | 0 | 0 | 0 | 0 | CC(O)COC[C@H]1O[C@@H]2O[C@H]3[C@H](O)[C@@H](O)[C@@H](O[C@H]4[C@H](O)[C@@H](O)[C@@H](O[C@H]5[C@H](O)[C@@H](O)[C@@H](O[C@H]6[C@H](O)[C@@H](O)[C@@H](O[C@H]7[C@H](O)[C@@H](O)[C@@H](O[C@H]8[C@H](O)[C@@H](O)[C@@H](O[C@H]1[C@H](O)[C@H]2O)O[C@@H]8COCC(C)O)O[C@@H]7COCC(C)O)O[C@@H]6COCC(C)O)O[C@@H]5COCC(C)O)O[C@@H]4COCC(C)O)O[C@@H]3COCC(C)O (stereo partly drawn) [HPBCD, Hydroxypropyl β-cyclodextrin] | Stability of Actives at 5° C. ([1]; Week 9): 0; Stability of Actives at 5° C. ([1]; Week 10): 0; Stability of Actives at 5° C. ([1]; Week 11): 0; Stability of Actives at 40° C. ([1]; Week 2): 0; Stability of Actives at 40° C. ([1]; Week 3): 0; Stability of Actives at 40° C. ([1]; Week 4): 0; Stability of Actives at 40° C. ([1]; Week 5): 0; Stability of Actives at 40° C. ([1]; Week 6): 0; Stability of Actives at 40° C. ([1]; Week 7): 0; Stability of Actives at 40° C. ([1]; Week 8): 0; Stability of Actives at 40° C. ([1]; Week 9): 0; Stability of Actives at 40° C. ([1]; Week 10): 0; Stability of Actives at 40° C. ([1]; Week 11): 0; aqueous solubility [4]: more than 60 g/100 mL |
|  |  |  |  |  |  |  |  |  |  |  |  |  |  |  |  |  |  |  |  | 1,3-diazacyclopenta-2,4-diene [imidazole] | pKa of conjugate acid (imidazolium ion) [5]: approximately 7.0 |
